{
  "source": "patent US6001852A",
  "about": "(priority 1996, dated 1999)",
  "key": {"zinc precipitated Aβ": {"test_system": "zinc precipitated Aβ", "assay": "Washing of zinc-aggregated synthetic Aβ on nylon membrane (anti Aβ mAb 6E10, ECL-film)", "format": "biochemical", "settings": "2 μM in TBS, 200 μl wash; 10 ng Aβ aggregated with 25 μM ZnCl; 100% for TBS alone", "procedure": "Samples of 10 ng synthetic Aβ were placed in microtitre wells and caused to aggregate by the addition of 25 μM ZnCl. The aggregates were then transferred to a 0.2 μm nylon membrane by filtration. […] The membrane was fixed, probed with the anti Aβ monoclonal antibody 6E10 and developed for exposure to ECL-film. The transmittance of the ECL-film was measured and the relative signal strength calculated based on 100% for TBS alone."}, "[1]": {"assay": "1H NMR study of the interaction of vitamin B12 with clioquinol glucuronide", "format": "binding", "settings": "2.6 mM vitamin B12 and 10 mM clioquinol glucuronide, buffered water pH 6.5, 20° C.", "procedure": "Three different solutions were prepared and their ^1 H NMR spectra were recorded in a DRX 400 MHz spectrophotometer at 20° C. Solution a) contained free vitamin B12 (hydroxycobalamin) in a concentration of 2.6 mM.\nIn FIG. 1 the spectra of the three solutions are presented for the aromatic region (5.5-9.8 ppm). The differences are quite small but obvious in the expansion shown of FIG. 2 and FIG. 3, respectively."}, "Aβ": {"test_system": "Aβ", "assay": "Solubilization of Aβ from Alzheimer's disease brain homogenates (Western blot, mAb W02)", "format": "biochemical, human", "settings": "frontal lobe neocortex homogenized in clioquinol/PBS at 100%, 10% and 1% (100%=800 nM)", "method": "Brain specimens were obtained for which a histopathological diagnosis of Alzheimer's disease was confirmed.\nThe homogenates were centrifuged at 150,000 xg for thirty minutes and the supernatants collected and held on ice (fraction \"S\"). The pellets were subjected to an identical homogenization and centrifugation regime and the resulting supernatants again collected (fraction \"P\")\n1 ml of each supernatant was treated with 200 μl of ice cold 10% TCA to precipitate total protein including Aβ. The resulting pellet was washed once with 100% ethanol and resuspended in 100 μl of TBS (tris 20 mM, NaCl 150 mM, pH 7.4).\n7.5 μl of sample (S or P) was boiled for 5 min. with an equal volume of tris-tricine sample buffer containing 4% SDS and loaded onto a Novex pre-cast 10-20% tris-tricine gel followed by Western transfer onto nitrocellulose. […] The sensitivity of the detection system is 5-10 pg.\nTo validate the TCA precipitation for Aβ 1 μg of synthetic Aβ 1-40 was added to 1 ml of PBS containing 10% BSA and the solution was treated as above."}, "[2]": {"assay": "Dissolution of clioquinol in n-decane and extraction into PBS pH 7.4", "format": "physicochemical", "procedure": "The resolubilization of amyloid aggregates by clioquinol was studied. […] The undissolved aterial was allowed to settle. […] 100 ml of the (light yellow) supernatant was agitated together with 100 ml of PBS pH 7.4 and the phases allowed to separate. The PBS (lower phase) was collected and filtered to remove the residue which formed at the phase interface upon extraction with the organic solvent."}, "zinc-aggregated Aβ": {"test_system": "zinc-aggregated Aβ", "assay": "Resolubilization of zinc-aggregated Aβ in TBS pH 7.4", "format": "biochemical", "settings": "clioquinol added after 30 μM zinc (43% in solution with zinc alone, 95% before zinc)", "procedure": "The ability of clioquinol to resolubilize zinc-aggregated Aβ was assessed. A […] solution of Aβ in TBS at a pH of 7.4 was prepared. 95% of the Aβ was maintained in a soluble state."}},
  "data": [
    {"smiles": "O=C(O)CN(CCN(CC(=O)O)CC(=O)O)CC(=O)O", "note": "[EDTA]", "values": [
      {"measurement": "Relative signal strength (Aβ remaining on membrane)", "setting": "zinc precipitated Aβ", "value": 66, "unit": "%"}
    ]},
    {"smiles": "COC(=O)[C@H]1OC(Oc2c(I)cc(Cl)c3cccnc23)[C@H](OC(C)=O)[C@@H](OC(C)=O)[C@@H]1OC(C)=O", "note": "(stereo partly drawn) [methyl (5-chloro-7-iodo-quinolyl-2',3',4'-tri-o-acetyl-glucopyranosid)uronate]", "values": [
      {"measurement": "Interaction with vitamin B12 (shifted 1H NMR resonances)", "setting": "[1]", "value": "interaction between clioquinol glucuronide and vitamin B12"}
    ]},
    {"smiles": "Oc1c(I)cc(Cl)c2cccnc12", "note": "[clioquinol, 5-chloro-7-iodo-8 hydroxyquinoline]", "values": [
      {"measurement": "Solubilization of Aβ", "setting": "Aβ", "value": "effective in promoting the solubilization of Aβ"},
      {"measurement": "Share of clioquinol dissolved in n-decane", "setting": "[2]; 5.3 g suspended in 200 ml n-decane", "value": 2, "unit": "%"},
      {"measurement": "Concentration of clioquinol in the PBS", "setting": "[2]; PBS pH 7.4 extract of decane supernatant, 1:1, assuming 2% dissolved and partitioning coefficient 1/1750", "value": 800, "unit": "nM"},
      {"measurement": "Soluble Aβ", "setting": "zinc-aggregated Aβ", "value": 70, "unit": "%"}
    ]}
  ]
}
